According to PubChem BioAssay (NCI):
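Interpolation was linear, between the two tested concentrations surrounding the appropriate level; five concentrations were tested over 48 hours in 96-well plates. The concentration for 50% growth inhibition is given as GI50. TGI marks complete inhibition of growth.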

Tests used:
Assay in all cases: DTP human tumour cell line panel, 48 h
786-0 renal = test system: 786-0 renal
A549 NSCLC = test system: A549 NSCLC
ACHN renal = test system: ACHN renal
BT-549 breast = test system: BT-549 breast
CAKI-1 renal = test system: CAKI-1 renal
CCRF-CEM leukemia = test system: CCRF-CEM leukemia
COLO 205 colon = test system: COLO 205 colon
DU-145 prostate = test system: DU-145 prostate
EKVX NSCLC = test system: EKVX NSCLC
HCC-2998 colon = test system: HCC-2998 colon
HCT-116 colon = test system: HCT-116 colon
HCT-15 colon = test system: HCT-15 colon
HL-60(TB) leukemia = test system: HL-60(TB) leukemia
HOP-62 NSCLC = test system: HOP-62 NSCLC
HOP-92 NSCLC = test system: HOP-92 NSCLC
HS 578T breast = test system: HS 578T breast
HT29 colon = test system: HT29 colon
IGROV1 ovarian = test system: IGROV1 ovarian
K-562 leukemia = test system: K-562 leukemia
KM12 colon = test system: KM12 colon
LOX IMVI melanoma = test system: LOX IMVI melanoma
M14 melanoma = test system: M14 melanoma
MALME-3M melanoma = test system: MALME-3M melanoma
MCF7 breast = test system: MCF7 breast
MDA-MB-231 breast = test system: MDA-MB-231 breast
MDA-MB-435 = test system: MDA-MB-435
MOLT-4 leukemia = test system: MOLT-4 leukemia
NCI-H226 lung = test system: NCI-H226 lung
NCI-H23 lung = test system: NCI-H23 lung
NCI-H460 lung = test system: NCI-H460 lung
NCI-H522 lung = test system: NCI-H522 lung
NCI/ADR-RES ovarian = test system: NCI/ADR-RES ovarian
OVCAR-3 ovarian = test system: OVCAR-3 ovarian
OVCAR-4 ovarian = test system: OVCAR-4 ovarian
OVCAR-5 ovarian = test system: OVCAR-5 ovarian
OVCAR-8 ovarian = test system: OVCAR-8 ovarian
PC-3 prostate = test system: PC-3 prostate
RPMI-8226 leukemia = test system: RPMI-8226 leukemia
RXF 393 renal = test system: RXF 393 renal
SF-268 CNS = test system: SF-268 CNS
SF-295 CNS = test system: SF-295 CNS
SF-539 CNS = test system: SF-539 CNS
SK-MEL-2 melanoma = test system: SK-MEL-2 melanoma
SK-MEL-28 melanoma = test system: SK-MEL-28 melanoma
SK-MEL-5 melanoma = test system: SK-MEL-5 melanoma
SK-OV-3 ovarian = test system: SK-OV-3 ovarian
SN12C renal = test system: SN12C renal
SNB-19 CNS = test system: SNB-19 CNS
SR leukemia = test system: SR leukemia
SW-620 colon = test system: SW-620 colon
T-47D breast = test system: T-47D breast
TK-10 renal = test system: TK-10 renal
U251 CNS = test system: U251 CNS
UACC-257 melanoma = test system: UACC-257 melanoma
UACC-62 melanoma = test system: UACC-62 melanoma
UO-31 renal = test system: UO-31 renal

COc1cccc(-c2nc3sccn3c2-c2ccnc(NCCNS(=O)(=O)c3ccccc3)c2)c1
GI50 (786-0 renal): 4 µM | TGI (786-0 renal): > 100 µM | GI50 (A549 NSCLC): 2.68 µM | TGI (A549 NSCLC): > 100 µM | GI50 (ACHN renal): 2.22 µM | TGI (ACHN renal): > 100 µM | GI50 (BT-549 breast): 2.29 µM | TGI (BT-549 breast): 8.67 µM | GI50 (CAKI-1 renal): 1.42 µM | TGI (CAKI-1 renal): > 100 µM | GI50 (CCRF-CEM leukemia): 1.88 µM | TGI (CCRF-CEM leukemia): > 100 µM | GI50 (COLO 205 colon): 1.87 µM | TGI (COLO 205 colon): 18.2 µM | GI50 (DU-145 prostate): 2.98 µM | TGI (DU-145 prostate): > 100 µM | GI50 (EKVX NSCLC): 3.13 µM | TGI (EKVX NSCLC): > 100 µM | GI50 (HCC-2998 colon): 6.23 µM | TGI (HCC-2998 colon): > 100 µM | GI50 (HCT-116 colon): 2.73 µM | TGI (HCT-116 colon): > 100 µM | GI50 (HCT-15 colon): 2.55 µM | TGI (HCT-15 colon): > 100 µM | GI50 (HL-60(TB) leukemia): 1.71 µM | TGI (HL-60(TB) leukemia): 5.56 µM | GI50 (HOP-62 NSCLC): 4.24 µM | TGI (HOP-62 NSCLC): 67.1 µM | GI50 (HOP-92 NSCLC): 0.596 µM | TGI (HOP-92 NSCLC): 33.6 µM | GI50 (HS 578T breast): 3.7 µM | TGI (HS 578T breast): > 100 µM | GI50 (HT29 colon): 2.37 µM | TGI (HT29 colon): 34.3 µM | GI50 (IGROV1 ovarian): 2.2 µM | TGI (IGROV1 ovarian): > 100 µM | GI50 (K-562 leukemia): 1.46 µM | TGI (K-562 leukemia): > 100 µM | GI50 (KM12 colon): 3.13 µM | TGI (KM12 colon): 25 µM | GI50 (LOX IMVI melanoma): 3.01 µM | TGI (LOX IMVI melanoma): 84.1 µM | GI50 (M14 melanoma): 2.84 µM | TGI (M14 melanoma): > 100 µM | GI50 (MALME-3M melanoma): 2.79 µM | TGI (MALME-3M melanoma): > 100 µM | GI50 (MCF7 breast): 3.14 µM | TGI (MCF7 breast): > 100 µM | GI50 (MDA-MB-231 breast): 3.81 µM | TGI (MDA-MB-231 breast): > 100 µM | GI50 (MDA-MB-435): 3.1 µM | TGI (MDA-MB-435): > 100 µM | GI50 (MOLT-4 leukemia): 2.03 µM | TGI (MOLT-4 leukemia): > 100 µM | GI50 (NCI-H226 lung): 2.48 µM | TGI (NCI-H226 lung): 10.5 µM | GI50 (NCI-H23 lung): 2.64 µM | TGI (NCI-H23 lung): 13.3 µM | GI50 (NCI-H460 lung): 3.47 µM | TGI (NCI-H460 lung): > 100 µM | GI50 (NCI-H522 lung): 2.26 µM | TGI (NCI-H522 lung): 27.6 µM | GI50 (NCI/ADR-RES ovarian): 2.66 µM | TGI (NCI/ADR-RES ovarian): 23.9 µM | GI50 (OVCAR-3 ovarian): 3.15 µM | TGI (OVCAR-3 ovarian): > 100 µM | GI50 (OVCAR-4 ovarian): 2.09 µM | TGI (OVCAR-4 ovarian): > 100 µM | GI50 (OVCAR-5 ovarian): 5.65 µM | TGI (OVCAR-5 ovarian): > 100 µM | GI50 (OVCAR-8 ovarian): 2.13 µM | TGI (OVCAR-8 ovarian): > 100 µM | GI50 (PC-3 prostate): 1.68 µM | TGI (PC-3 prostate): > 100 µM | GI50 (RPMI-8226 leukemia): 1.05 µM | TGI (RPMI-8226 leukemia): 3.65 µM | GI50 (RXF 393 renal): 2.11 µM | TGI (RXF 393 renal): > 100 µM | GI50 (SF-268 CNS): 3.54 µM | TGI (SF-268 CNS): > 100 µM | GI50 (SF-295 CNS): 2.62 µM | TGI (SF-295 CNS): > 100 µM | GI50 (SF-539 CNS): 4.98 µM | TGI (SF-539 CNS): > 100 µM | GI50 (SK-MEL-2 melanoma): 1.96 µM | TGI (SK-MEL-2 melanoma): 5.96 µM | GI50 (SK-MEL-28 melanoma): 5.13 µM | TGI (SK-MEL-28 melanoma): > 100 µM | GI50 (SK-MEL-5 melanoma): 1.53 µM | TGI (SK-MEL-5 melanoma): 4.89 µM | GI50 (SK-OV-3 ovarian): 5.11 µM | TGI (SK-OV-3 ovarian): > 100 µM | GI50 (SN12C renal): 2.91 µM | TGI (SN12C renal): > 100 µM | GI50 (SNB-19 CNS): 5.92 µM | TGI (SNB-19 CNS): > 100 µM | GI50 (SR leukemia): 3.21 µM | TGI (SR leukemia): > 100 µM | GI50 (SW-620 colon): 4.3 µM | TGI (SW-620 colon): > 100 µM | GI50 (T-47D breast): 0.776 µM | TGI (T-47D breast): 4.96 µM | GI50 (TK-10 renal): 3.58 µM | TGI (TK-10 renal): 57.2 µM | GI50 (U251 CNS): 3.9 µM | TGI (U251 CNS): > 100 µM | GI50 (UACC-257 melanoma): 4.47 µM | TGI (UACC-257 melanoma): 55.2 µM | GI50 (UACC-62 melanoma): 1.29 µM | TGI (UACC-62 melanoma): 3.49 µM | GI50 (UO-31 renal): 0.59 µM | TGI (UO-31 renal): 6.65 µM
